Assay results: patent publication US20250144049A1, “METHODS, COMPOSITIONS, AND USES RELATED TO THE TREATMENT AND PREVENTION OF LEIGH SYNDROME” (Stealth BioTherapeutics Inc., priority 2023, published 2025)

Test: Compound 4 pharmacokinetics and tissue exposure after five daily subcutaneous doses
Format: in vivo, C57BL/6 mice
Experimental: Study design details: • Animals were allowed to acclimate to the test facility for at least two days prior to the beginning of the study. • Study animals were male C57BL/6 mice weighing approximately 18-25 grams each. • Fasting was not required for the study. • Body weights were recorded prior to dose administration. The volume of each dose delivered (mL/kg) was based on each individual animal's body weight. • This was a multiple dose serial PK dosed subcutaneously once daily over 5 days. Compound 4 was administered to two groups: Group 1 at 60 mg/kg and Group 2 at 180 mg/kg (6 and 18 mg/mL, 15% Kolliphor ELP in PBS, 10 mL/kg; N=3/group). Serial PK timepoints were collected following the 5th and final dose.
Sample collection details: • Serial blood samples were collected via tail vein snip. • Blood samples were collected into tubes with anticoagulant. Tubes were stored on wet ice until processed to plasma by centrifugation (3500 rpm at 5° C. for 10 minutes) within 20 minutes of collection. Sample aliquots of 20 μL were transferred into individual uniquely labeled matrix tubes and stored at nominal −80° C. until transferred to analytical chemistry for analysis. • Immediately following each terminal blood collection for all groups, animals were sacrificed and perfused with cold PBS. Heart and brain tissues were collected. • Perfusion methodology: The chest was opened lengthwise using scissors to expose the thoracic organs. A scalpel was used to cut a small hole into the left ventricle just large enough to insert a cannula tip. The cannula was attached to an appropriately sized tubing and syringe prefilled with cold PBS and primed to remove any air. The tip of the cannula was inserted into the left ventricle and directed into the ascending aorta. Hemostats were used to help keep the cannula in place during perfusion. A second hole was made in the right atrium to allow for the escape of fluid during the return circulation. The syringe attached to the cannula was manually pushed or placed into a pump programmed to infuse at 10 mL/min. Animals were perfused for a minimum of 3 minutes or more if needed (until the exiting fluid was clear).
• N=3/group; • Collections relative to the final dose: • Plasma: 60 mg/kg at 2 and 24 hr, 180 mg/kg at predose, 2, 8, and 24 hr • Heart and Brain: 24 hr (terminal, PBS-perfused); • RGA 2 bioanalysis.
• N=3/timepoint; • Collections relative to the final dose: • Plasma: 0.5, 2, 8, and 24 hr (terminal) • Heart and Brain: 0.5, 2, 8, and 24 hr (terminal, PBS-perfused) • RGA 2 bioanalysis.

[1] = male, C57BL/6, mouse, in vivo, sc, 60 mg/kg

Compound: CC1=C(C)C(=O)C(CC[C@](C)(O)CCCCCCCCC(F)(F)F)=C(C)C1=O [Compound 4]
- time to steady-state (male, C57BL/6, mouse, in vivo, sc): ≤ 5 days
- AUClast/Dose [1]: 257 kg·ng·h/mL/mg
- Cmax/Dose [1]: 24.0 kg·ng/mL/mg
- AUClast/Dose (male, C57BL/6, mouse, in vivo, sc, 180 mg/kg): 273 kg·ng·h/mL/mg
- C24/Dose (male, C57BL/6, mouse, in vivo, sc, 180 mg/kg, 24 h): 1.48 kg·ng/mL/mg
- concentrations in heart versus brain (mouse tissue after 5 days): Similar
- C24 (trough) tissue exposure versus dose (mouse, in vivo): approximately proportional to dose
